Measurements published in patent US20230286973A1, “PROTEIN SECRETION INHIBITORS” (KEZAR LIFE SCIENCES, priority 2020, published 2023).
Like-named read-outs stand apart in the source and are kept apart here.

Legend:
[1] = Liver Microsome Stability Assay (monkey); settings: monkey liver microsomes, with NADPH, 1.0 uM compound
Procedure: (§1) Stability of a compound was assessed in the presence of liver microsomes from various sources—mouse, rat, monkey and human liver microsomes. 1.0 uM compound, 0.4% DMSO in 0.1 M Potassium Phosphate with 1.0 mg/mL liver microsomes, were incubated at 37° C. with or without 1 mM NADPH. The samples were quenched at 0, and 30 minutes.

[2] = test system: IL-2-FL/Gaussia Luciferase; test: Dox Induced IL2-FL-Gluc Assay; assay type: cell-based; settings: for IC50: 24 hr Dox induction, 293FRT/TO cells, read-out: 24 hr Dox Inducible IL2FLGluc 293FRT/TO: Mean IC50; for 24 hr Dox Inducible IL2FLGluc 293FRT/TO: IL2/PD1: ratio of IL2FLGluc IC50 to PD1ssGluc IC50
In short: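 Doxycycline induces an IL-2(1-153)–Gaussia luciferase fusion in a stable Flp-In 293 T-REx line. Compound exposure runs alongside induction at 37° C.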

[3] = test system: HER3-ss+4aa/Gaussia Luciferase; test: Dox-Induced Her3-ss-Gluc Assay; assay type: cell-based; settings: 24 hr Dox induction, 293FRT/TO cells, read-out: 24 hr Dox Inducible Her3(ss + 4)Gluc 293FRT/TO: Mean IC50
In short: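 Reporter line: Flp-In 293 T-REx, T-REx-regulated HER3-ss+4aa fused to Gaussia luciferase. Compound co-added with doxycycline after overnight plating, 37° C., 5% CO2.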

[4] = test system: TNFα-FL/Gaussia Luciferase; test: Dox Induced TNFα-FL-Gluc Assay; assay type: cell-based; settings: for IC50: 24 hr Dox induction, 293FRT/TO cells, read-out: 24 hr Dox Inducible TNFaFLGluc 293FRT/TO: Mean IC50; for 24 hr Dox Inducible TNFaFLGluc 293FRT/TO: TNF/PD1: ratio of TNFaFLGluc IC50 to PD1ssGluc IC50
In short: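 Doxycycline-inducible Gaussia luciferase-tagged full-length TNFα (1-233) was expressed in stable Flp-In 293 T-REx cells. Compounds were co-added with doxycycline and incubated at 37 °C, 5% CO2.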

[5] = test system: PD1-ss+10aa/Gaussia Luciferase; test: Dox-Induced PD1-ss-Gluc Assay; assay type: cell-based; settings: 24 hr Dox induction, 293FRT/TO cells, read-out: 24 hr Dox Inducible PD1ssGluc 293FRT/TO: Mean IC50
In short: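 Flp-In 293 T-REx, stable line; Tet-regulated PD1-ss+10aa fused to Gaussia luciferase; plated day prior; cpd + doxycycline in DMSO/media; 37 °C, 5% CO2.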

[6] = test system: multiple myeloma cell line U266B1; test: U266 Cell Viability Assay; assay type: cell-based, human; settings: Homo sapiens, U-266, 48 h, U266B1 cells, Celltiter-Glo
In short: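 Viability is measured as luciferase signal from CellTiter-Glo following a 48-hour incubation with compound at 37° C. under 5% CO2. Where structures lack drawn stereochemistry, values refer to stereoisomer mixtures.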

[7] = test system: multiple myeloma cell line NCI-H929; test: H929 Cell Viability Assay; assay type: cell-based, human; settings: Homo sapiens, NCI-H929, 48 h, NCI-H929 cells, Celltiter-Glo
In short: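 Viability is scored by CellTiter-Glo luminescence following a 48-hour treatment at 37° C. Data for structures shown without stereochemistry refer to stereoisomer mixtures.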

[8] = Liver Microsome Stability Assay (mouse); settings: mouse liver microsomes, with NADPH, 1.0 uM compound
Procedure: as §1

[9] = Liver Microsome Stability Assay (human); settings: human liver microsomes, with NADPH, 1.0 uM compound
Procedure: as §1

[10] = Liver Microsome Stability Assay (rat); settings: rat liver microsomes, with NADPH, 1.0 uM compound
Procedure: as §1

[11] = '<=>' given where both are I.A.

| Compound | Liver Microsome Stability (Multiple Species): Monkey - % Remaining after 30 min w/NADPH [1] [%] | IC50 ([2]; mean) [µM] | 24 hr Dox Inducible IL2FLGluc 293FRT/TO: IL2/PD1 [2, 11] | IC50 ([3]; mean) [µM] | IC50 ([4]; mean) [µM] | 24 hr Dox Inducible TNFaFLGluc 293FRT/TO: TNF/PD1 [4, 11] | IC50 ([5]; mean) [µM] | EC50 [6] [µM] | EC50 [7] [µM] | Liver Microsome Stability (Multiple Species): Mouse - % Remaining after 30 min w/NADPH [8] [%] | Liver Microsome Stability (Multiple Species): Human - % Remaining after 30 min w/NADPH [9] [%] | Liver Microsome Stability (Multiple Species): Rat - % Remaining after 30 min w/NADPH [10] [%] | IC50 [2] [µM] | 24 hr Dox Inducible IL2FLGluc 293FRT/TO: IL2/PD1 [2] | IC50 [3] [µM] | IC50 [4] [µM] | 24 hr Dox Inducible TNFaFLGluc 293FRT/TO: TNF/PD1 [4] | IC50 [5] [µM] |
| --- | --- | --- | --- | --- | --- | --- | --- | --- | --- | --- | --- | --- | --- | --- | --- | --- | --- | --- |
| COC(=O)Cn1cnc(/C=C/c2csc(NC(=O)c3cccn3Cc3ccnc(F)c3)n2)c1C [Compound B120, methyl (E)-2-(4-(2-(2-(1-((2-fluoropyridin-4-yl)methyl)-1H-pyrrole-2-carboxamido)thiazol-4-yl)vinyl)-5-methyl-1H-imidazol-1-yl)acetate] | 0.15 | > 25 | >9.3 | > 25 | > 25 | >9.29 | 2.69 | > 25 | > 25 | 6.6 | 0.24 | 2.69 |  |  |  |  |  |  |
| O=C(Nc1nc(/C=C/c2cn(C3CCCCC3)cn2)cs1)c1cccn1Cc1ccnc(F)c1 [Compound B55, (E)-N-(4-(2-(1-cyclohexyl-1H-imidazol-4-yl)vinyl)thiazol-2-yl)-1-((2-fluoropyridin-4-yl)methyl)-1H-pyrrole-2-carboxamide] | 0.4 |  |  |  |  |  |  | > 25 | > 20.8 | 1.7 | 0.41 | 0.3 | 2.01 | 79 | 1.17 | 6.62 | 262 | 0.0253 |
| C[S+]([O-])N1CC(Oc2ccc(N3CCC[C@@H]3c3csc(NC(=O)c4cccn4Cc4ccnc(F)c4)n3)cc2)C1 (stereo partly drawn) [Compound A153, 1-((2-fluoropyridin-4-yl)methyl)-N-(4-((2R)-1-(4-((1-(methylsulfinyl)azetidin-3-yl)oxy)phenyl)pyrrolidin-2-yl)thiazol-2-yl)-1H-pyrrole-2-carboxamide] | 2.49 |  |  |  |  |  |  | > 25 | 1.02 | 1.09 | 1.88 | 19.8 | 0.0904 | 2.4 | 0.0648 | 0.877 | 23.5 | 0.0374 |
| CC(=O)Nc1ccc(N2CCC[C@@H]2c2csc(NC(=O)c3cccn3Cc3cc(F)nc(F)c3)n2)cc1 [Compound A122, (R)-N-(4-(1-(4-acetamidophenyl)pyrrolidin-2-yl)thiazol-2-yl)-1-((2,6-difluoropyridin-4-yl)methyl)-1H-pyrrole-2-carboxamide] | 27.3 |  |  |  |  |  |  | 8.02 | 0.354 | 17.1 | 35.8 | 18.8 | 0.016 | 2 | 0.0174 | 0.191 | 24.2 | 0.00788 |
| CC1CCc2c(/C=C/c3csc(NC(=O)c4cccn4Cc4ccnc(F)c4)n3)ncn2C1 (centres unmarked) [Compound B98, (E)-1-((2-fluoropyridin-4-yl)methyl)-N-(4-(2-(6-methyl-5,6,7,8-tetrahydroimidazo[1,5-a]pyridin-1-yl)vinyl)thiazol-2-yl)-1H-pyrrole-2-carboxamide] | 0.72 |  |  |  |  |  |  | > 25 | > 25 | 6.81 | 0.2 | 6.91 | 2.29 | 74 | 1.59 | > 25 | >814 | 0.0307 |
| CC(C)n1ccc(/C=C/c2csc(NC(=O)c3cccn3Cc3ccnc(F)c3)n2)n1 [Compound B74, (E)-1-((2-fluoropyridin-4-yl)methyl)-N-(4-(2-(1-isopropyl-1H-pyrazol-3-yl)vinyl)thiazol-2-yl)-1H-pyrrole-2-carboxamide] | 0.13 |  |  |  |  |  |  | 5.49 | 5.29 | 3.41 | 0.44 | 0.43 | 5.36 | 13 | 4.08 | 9.97 | 23.9 | 0.418 |
| CCc1ccc(N2CCC[C@@H]2c2csc(NC(=O)c3cccn3CC3CCOCC3)n2)cc1 [Compound C110, (R)-N-(4-(1-(4-ethylphenyl)pyrrolidin-2-yl)thiazol-2-yl)-1-((tetrahydro-2H-pyran-4-yl)methyl)-1H-pyrrole-2-carboxamide] | 22.2 | 0.0949 | 3 | 0.0464 | 0.302 | 9.61 | 0.0314 | > 25 | 1.78 | 74.3 | 61.3 | 36 |  |  |  |  |  |  |
| O=C(O)CCn1cccc1C(=O)Nc1nc([C@H]2CCCN2c2ccccc2)cs1 [Compound C12] | 90.9 | > 25 | 1 | > 25 | > 25 |  | > 25 | > 25 | > 25 | 60.4 | 75.1 | 76.3 |  |  |  |  |  |  |
| CN1CCOC(/C=C/c2csc(NC(=O)c3cccn3Cc3ccncc3)n2)C1 (centres unmarked) [Compound B6, (E)-N-(4-(2-(4-methylmorpholin-2-yl)vinyl)thiazol-2-yl)-1-(pyridin-4-ylmethyl)-1H-pyrrole-2-carboxamide] | 6.93 |  |  |  |  |  |  | > 25 | > 25 | 10 | 5.85 | 13.2 | > 25 | 5.7 | > 25 | > 25 | >5.68 | 4.4 |
